# Source: patent publication US7671058B2, “N-(3,4-disubstituted phenyl) salicylamide derivatives” (Institute of Medicinal Molecular Design, Inc., priority 2006, dated 2010)
# Read-outs that look alike come from different tables or passages of the source.
# Experiments:
# STAT6 = STAT6 inhibition test: (GLS)x8/pTA-Luc luciferase reporter in U2-OS cells stimulated with human IL-4; assay type: cell-based; details: human IL-4 40 ng/mL; for Inhibition Rate of STAT6 (%) / inhibition at 2 µM: compound 2 μM, 8 hours; for IC50: from inhibition rates at 1, 0.1, 0.01 and 0.001 μM, read-out: IC50 against activation of STAT6; for inhibition at 2 µM: read-out: Inhibition Rate of STAT6 (%)
# Excerpt: (1) Construction of a STAT6 Reporter Plasmid
# The Oligonucleotides (SEQ ID: 1, 2) containing two copies of STAT6 binding sequences (refer to J. Biol. Chem., vol. 276, No. 9, pp. 6675-6688 (2001).) were synthesized, and integrated into the enhancer region of the reporter plasmid pTA-Luc Vector (CLONTECH Laboratories, Inc.) at the restriction enzyme BgIII site.
# When the oligonucleotide is integrated in positive direction into the plasmid, the upstream BglII site is not reconstructed. Therefore, STAT6 binding sequences can be increased by repeating integration of the oligonucleotide at the restriction enzyme BglII site.
# In the present test, a plasmid including eight integrated STAT6 binding sequences was constructed and provided for the reporter assay as (GLS)x8/pTA-Luc. Confirmation of the sequences was carried out using an automated fluorescence sequencer (Model 310 (Applied Biosystems)).
# (2) Transfection into U2-OS Cells and Inhibition Test for STAT6 Activation
# U2-OS cells were seeded to at 2×10^4 cells/well in 96-well culture plates, and transfection was carried out using FuGENE 6 Transfection Reagent (Roche Diagnostics GmbH). The procedures of the transfection are shown below.
# 11 μg of reporter plasmid ((GLS)x8/pTA-Luc) and 1.1 μg of pCMV β (CLONTECH Laboratories, Inc.) were mixed in 1.1 mL of OPTI-MEM I medium (GIBCO BRL) (solution (A)).
# 33 μL of FuGENE 6 Transfection Reagent was mixed in 1.1 mL of OPTI-MEM I medium (solution (B)).
# (§1) The above solution (A) and solution (B) were mixed, let them stand for 15 minutes at room temperature, then, 8.8 mL of OPTI-MEM I medium was added and diluted.
# To this transfection solution, U2-OS cell suspension (11 mL) in McCoy's 5A medium (GIBCO BRL) containing 10% Fetal Bovine Serum (FBS; GIBCO BRL) at 2×10^5 cells/mL was added and well mixed.
# (§2) 0.2 mL of the above solution was dispensed into each well of 96-well culture plates, and incubated for 24 hours (37° C., 5% CO2).
# After removal of 50 μL of medium from each well, 50 μL of McCoy's 5A medium (serum-free) containing compound, of the present application was added to a final concentration of 0.01˜2 μM (0.001, 0.01, 0.1, 0.5, 1 or 2 μM), and the plates were incubated for 2 hours (37° C., 5% CO2).
# 10 μL of the McCoy's 5A medium (serum-free) containing human IL-4 (R&D Systems, Inc) was added to each well to achieve a final concentration of 40 ng/mL, and incubated for 8 hours (37° C., 5% CO2).
# (§3) Medium was completely removed and plates were preserved at −80° C. until measurements.
# (§4) Cell lysates were prepared by adding 40 μL of Passive Lysis Buffer (Promega Corporation) to each well.
# (§5) 10 μL of each lysate was transferred to 96-well white plates. 50 μL of PicaGene L.T.2.0 (TOYO INK MFG. CO., LTD.) was added to each well, then, luminescence was measured after leaving for 10 minutes at room temperature.
# (§6) 10 μL of each lysate was transferred to 96-well black plates. 100 μL of Z Buffer (preparation method will be explained later) was added to each well, and fluorescence was measured immediately.
# (§7) 10 μL of each lysate was transferred to 96-well clear plates. 200 μL of protein assay reagent prepared from the BCA Protein Assay Kit (Pierce Biotechnology, Inc.) was added to each well, and, absorbance was measured after incubation for 30 minutes at 37° C.
# (§8) For measurements of luminescence, fluorescence, and absorbance, microplate reader GENios (TECAN G.M.B.H.) was used.
# (4) Calculation of Inhibition Rate
# Luminescence values that show the degree of activation by IL-4 stimulation were normalized by β-gal values that show transfection efficiency. Using the normalized values, the following calculations were carried out using the luminescence values increased by IL-4 stimulation. Inhibition Rate(%)=[…] E: In the presence of the compound of the present application, increased luminescence value by IL-4 stimulation C: Without the presence of the compound of the present application, increased luminescence value by IL-4 stimulation […]
# NF-κB = NF-κB inhibition test: pNFκB-Luc luciferase reporter in U2-OS cells stimulated with human TNF α; assay type: cell-based; details: human TNF α 10 ng/mL; for Inhibition Rate of NF-κB (%) / inhibition at 2 µM: compound 2 μM, 8 hours; for IC50: from inhibition rates at 1, 0.1, 0.01 and 0.001 μM, read-out: IC50 against activation of NF-κB; for inhibition at 2 µM: read-out: Inhibition Rate of NF-κB (%)
# Description: (1) Transfection to U2-OS Cells and Inhibition Test of Activation
# U2-OS cells were seeded at 2×10^4 cells/well in 96-well culture plate, and transfection was carried out using FuGENE 6 Transfection Reagent (Roche Diagnostics GmbH). The procedures of the transfection are shown below.
# 11 μg of reporter plasmid (pNFκB-Luc; Stratagene Corporation) and 1.1 μg of pCMV β (CLONTECH Laboratories, Inc.) were mixed in 1.1 mL of OPTI-MEM I medium (GIBCO BRL) (solution (A)).
# […] of FuGENE 6 Transfection Reagent was mixed in 1.1 mL of OPTI-MEM I medium (solution (B)).
# as §1
# To this transfection solution, U2-OS cell suspension (11 mL) in McCoy's 5A medium (GIBCO BRL) containing 10% Fetal Bovine Serum (FBS; GIBCO BRL) at […] was added and well mixed.
# as §2
# After removal of 50 μL of medium from each well, 50 μL of McCoy's 5A medium (serum-free) containing compound of the present application was added to a final concentration of 0.01˜2 μM (0.001, 0.01, 0.1, 0.5, 1 or 2 μM), and the plates were incubated for 2 hours (37° C., 5% CO2).
# 10 μL of the McCoy's 5A medium (serum-free) containing human TNF α (PEPROTECH EC Ltd.) was added to each well to achieve a final concentration of 10 ng/mL, and incubated for 8 hours (37° C., 5% CO2).
# as §3, §4, §5, §6, §7, §8
# (3) Calculation of Inhibition Rate
# Luminescence values that show the degree of activation by TNF α stimulation were normalized by β-gal values that show transfection efficiency. Using the normalized values, the following calculation was carried out using the luminescence values that increased by TNF α stimulation. Inhibition Rate(%)=[…] E: In the presence of the compound of the present application, increased luminescence values by TNF α stimulation C: Without the presence of the compound of the present application, increased luminescence values by TNF α, stimulation
# The values of protein assay by BCA reagent were used for a simple assessment of cytotoxicity, and not used for the calculation of inhibition rates.
# NF-κB Inhibition Rates are shown below. The values in parentheses in the table represent the concentration of the compound of the present application.
# NF-κB inhibition rates where the concentrations of the compound of the present application were 1, 0.1, 0.01 and 0.001 μM were calculated, and the 50% inhibitory concentrations (IC50) of the compounds of the present application against activation of NF-κB were evaluated.
SMILES,Inhibition Rate of STAT6 (%) (STAT6),Inhibition Rate of NF-κB (%) (NF-κB),also measured
Cl.O=C(Nc1ccc(OCC2CCNCC2)c(F)c1)c1cc(Cl)ccc1O [compound 45],76 (2 μM) %,68 (2 μM) %,–
Cl.O=C(Nc1ccc(N2CCCNCC2)c(Cl)c1)c1cc(Cl)ccc1O [compound 81],92 (2 μM) %,90 (2 μM) %,IC50 (STAT6): 0.0109 µM; IC50 (NF-κB): 0.0178 µM
CN1CCCN(c2ccc(NC(=O)c3cc(Br)ccc3O)cc2F)CC1 [compound 86],93 (2 μM) %,93 (2 μM) %,IC50 (STAT6): 0.0108 µM; IC50 (NF-κB): 0.00762 µM
O=C(Nc1ccc(N2CCCCC2)c(F)c1)c1cc(Cl)ccc1O [compound 2],90 (2 μM) %,77 (2 μM) %,IC50 (STAT6): 0.0581 µM; IC50 (NF-κB): 0.0394 µM
Cl.NC1CCN(c2ccc(NC(=O)c3cc(Cl)ccc3O)cc2Cl)CC1 [compound 75],76 (2 μM) %,78 (2 μM) %,IC50 (STAT6): 0.076 µM; IC50 (NF-κB): 0.0358 µM
Cc1cc(NC(=O)c2cc(Cl)ccc2O)ccc1OC1CCN(C)CC1 [compound 25],80 (2 μM) %,60 (2 μM) %,–
Cl.NCC1CCN(c2ccc(NC(=O)c3cc(Cl)ccc3O)cc2F)CC1 [compound 47],96 (2 μM) %,95 (2 μM) %,IC50 (STAT6): 0.00798 µM; IC50 (NF-κB): 0.014 µM
O=C(Nc1ccc(N2CCCN(Cc3ccccc3)CC2)c(F)c1)c1cc(Cl)ccc1O [compound 52],55 (2 μM) %,27 (2 μM) %,–
CN(C)C1CCN(c2ccc(NC(=O)c3cc(Cl)ccc3O)cc2F)CC1 [Compound 78],–,–,inhibition at 2 µM (STAT6; U2OS): 46%; inhibition at 2 µM (NF-κB; U2OS): 49%
CN1CCN(c2ccc(NC(=O)c3cccc(Cl)c3O)cc2F)CC1.Cl [compound 60],26 (2 μM) %,16 (2 μM) %,–
O=C(Nc1ccc(N2CCCCCC2)c(F)c1)c1cc(Cl)ccc1O [compound 7],84 (2 μM) %,46 (2 μM) %,–
CN1CCN(c2ccc(NC(=O)c3cc(Cl)ccc3O)cc2F)CC1 [compound 12],94 (2 μM) %,91 (2 μM) %,IC50 (STAT6): 0.015 µM; IC50 (NF-κB): 0.0252 µM
CC(=O)N1CCN(c2ccc(NC(=O)c3cc(Cl)ccc3O)cc2F)CC1 [compound 11],40 (2 μM) %,22 (2 μM) %,–
CN1CCN(c2ccc(NC(=O)c3cc(F)ccc3O)cc2F)CC1.Cl [compound 59],60 (2 μM) %,43 (2 μM) %,–
CCOc1cc(NC(=O)c2cc(Cl)ccc2O)ccc1N1CCCCC1 [compound 14],56 (2 μM) %,60 (2 μM) %,–
O=C(Nc1ccc(OC2CCCCC2)c(F)c1)c1cc(Cl)ccc1O [compound 10],76 (2 μM) %,45 (2 μM) %,–
Cc1cc(NC(=O)c2cc(Cl)ccc2O)ccc1N1CCCCC1 [compound 9],53 (2 μM) %,–,–
NC1CCC(Oc2ccc(NC(=O)c3cc(Cl)ccc3O)cc2F)CC1 (centres unmarked) [compound 65],42 (2 μM) %,20 (2 μM) %,–
Cl.O=C(Nc1ccc(OC2CCNCC2)c(F)c1)c1cc(Cl)ccc1O [compound 32],92 (2 μM) %,91 (2 μM) %,IC50 (STAT6): 0.00588 µM; IC50 (NF-κB): 0.0137 µM
O=C(Nc1ccc(N2CCC(O)CC2)c(F)c1)c1cc(Cl)ccc1O [compound 43],46 (2 μM) %,32 (2 μM) %,–
CCC1CNCCN1c1ccc(NC(=O)c2cc(Cl)ccc2O)cc1F.Cl (centres unmarked) [compound 89],62 (2 μM) %,62 (2 μM) %,–
CN1CCN(c2ccc(NC(=O)c3cc(Br)ccc3O)cc2F)CC1 [compound 69],79 (2 μM) %,76 (2 μM) %,IC50 (STAT6): 0.0106 µM; IC50 (NF-κB): 0.0303 µM
O=C(Nc1ccc(N2CCNCC2)c(F)c1)c1cc(Cl)ccc1O [Compound 22],–,–,inhibition at 2 µM (STAT6; U2OS): 85%; IC50 (STAT6; U2OS): 0.0823 µM; inhibition at 2 µM (NF-κB; U2OS): 82%; IC50 (NF-κB; U2OS): 0.0808 µM
CN1CCN(c2ccc(NC(=O)c3ccccc3O)cc2F)CC1.Cl [compound 30],19 (2 μM) %,–,–
Cl.O=C(Nc1ccc(OC2CCCNC2)c(F)c1)c1cc(Cl)ccc1O (centres unmarked) [compound 56],19 (2 μM) %,–,–
CC1CN(c2ccc(NC(=O)c3cc(Cl)ccc3O)cc2F)CCN1.Cl (centres unmarked) [compound 73],20 (2 μM) %,–,–
CC1CCCN1c1ccc(NC(=O)c2cc(Cl)ccc2O)cc1F (centres unmarked) [compound 82],38 (2 μM) %,–,–
"O=C(Nc1cc(C(F)(F)F)cc(C(F)(F)F)c1)c1cc(Cl)ccc1O [N-[3,5-Bis(trifluoromethyl)phenyl]-5-chloro-2-hydroxybenzamide, reference compound]",–,–,IC50 (NF-κB; U2OS): 0.385 µM
